Data published in US9814754B2, “Combinations with a backbone-cyclized peptide” (POLYPHOR AG, priority 2012, dated 2017).
Square brackets hold non-standard residues; d marks the D form. dDab = NCC[C@@H](N)C(=O)O; Orn = NCCC[C@H](N)C(=O)O; Dab = NCC[C@H](N)C(=O)O

Legend:
Assay type in all cases: in vivo
[1] = tested on: Pseudomonas aeruginosa clinical isolate PA18298; experiment: Murine pneumonia model, compound 1 in combination with amikacin (Example 4); details: murine lungs
Method: The efficacy and ED50 of the compound of formula (I) (“compound 1”) in combination with amikacin was determined against Pseudomonas aeruginosa clinical isolate PA18298 in a pneumonia model in mice. Colony counts in lung were determined at 20 hours post treatment.
(§1) Fresh overnight colonies of PA18298 from a 5% Horse Blood Agar plate were suspended in 0.9% sterile saline to approximately 10^8 CFU/ml and further diluted to approximately 5×10^7 CFU/ml. Female mice (DBA/2, outbred, 18-22 g, Charles River) were anesthetized with 0.1 ml of Zoletil and inoculated via the nose with a pipette with 0.05 ml of the bacteria suspension containing approximately 10^6 CFU. 4 hours after inoculation, the mice were treated orally with 45 μl neurophen (20 mg ibuprofen/ml corresponding to approximately 30 mg/kg) as pain relief.
175 mg of amikacin (Sigma) were dissolved in 5 ml 0.9% sterile saline to a concentration of 35 mg/ml and further diluted with saline to 3 mg/ml. The mice were treated subcutaneously with 0.2 ml in the neck region with a single dose at 3 hours post infection corresponding to 30 mg/kg on the basis of a mean animal weight of 20 g.
One vial containing 10 mg of active compound 1 was dissolved in 2 ml 0.9% sterile saline to a concentration of 5 mg/ml and further diluted with saline […], 1, 0.55, 0.275 and 0.137 mg/ml. The mice were treated subcutaneously with 0.2 ml in the neck region with a single dose at 4 hours post infection with a dose calculation based on a mean animal weight of 20 g. Colistin was used as a control in the same manner with a fixed dose of 20 mg/kg.
(§2) Colony counts were determined post inoculation at 4 hours (untreated mice) and 24 hours (treated and vehicle-only treated mice). Immediately after the mice were sacrificed, the lungs were collected and frozen at −20° C. After thawing, the organs were homogenized in 1 ml 0.9% saline. Each sample was then 10 fold diluted in saline and 20 μl spots were applied on blood agar plates. All agar plates were incubated 18-24 hours at 35° C. in ambient air.
The CFU/ml in the inoculum was determined to 7.4 log10 CFU/ml corresponding to 6.17 log10 CFU/mouse.
At 4 hours after inoculation the mean log 10 CFU/lung was 5.06 and the CFU level declined to 1.55 mean log 10 CFU/lung after 24 hours in the vehicle group.

[2] = tested on: Pseudomonas aeruginosa clinical isolate PA9349; experiment: Murine pneumonia model, compound 1 alone (Reference 2); details: for mean CFU level compared to the vehicle group: lungs
Method: Efficacy in Murine Pneumonia Model Against Pseudomonas aeruginosa PA9349 and Estimation of ED50
The efficacy and ED50 of the compound of formula (I) (“compound 1”) was determined against Pseudomonas aeruginosa clinical isolate PA9349 in a pneumonia model in mice. Colony counts in the lungs were determined at 18-20 hours post treatment.
as §1, with “PA9349” for “PA18298”, “5×10^6” for “5×10^7”, “Zoletil (tiletamine+zolazepam)” for “Zoletil”, “5×10^5” for “10^6”
One vial containing 10 mg of active compound 1 was dissolved in 5 ml 0.9% sterile saline to a concentration of 2 mg/ml and was further 2-fold diluted with saline to 1, 0.5, 0.25, 0.125 and 0.06 mg/ml. The mice were treated subcutaneously with 0.2 ml in the neck region with a single dose at 4 hours post infection with a dose calculation based on a mean animal weight of 20 g. As positive control colistin was used in the same manner with a fixed dose of 40 mg/kg.
as §2, with “10-fold” for “10 fold”, “18-48” for “18-24”
The CFU/ml in the inoculum was determined to 7.29 log10 CFU/ml corresponding to 5.98 log10 CFU/mouse.
At 4 hours after infection the mean log10 CFU/lung was 3.47 and the CFU level increased to 4.92 at […] post inoculation in the vehicle-only group.

[3] = tested on: Pseudomonas aeruginosa clinical isolate PA9349; experiment: Murine pneumonia model, compound 1 in combination with ciprofloxacin (Example 3)
Method: Colony counts in lung were determined at 20 hours post treatment.
Fresh overnight colonies of PA9349 from a 5% Horse Blood Agar plate were suspended in 0.9% sterile saline to approximately 10^8 CFU/ml and further diluted to approximately 10^7 CFU/ml. Female mice (C57BL/6 […], outbred, 20-25 g, Hellenic Pasteur Institute) were anesthetized with ether and inoculated via the nose with a pipette with 0.05 ml of the bacteria suspension containing approximately 10^6 CFU. After inoculation, mice were treated with paracetamol suppositories as a pain relief.
The mice were treated subcutaneously with 0.2 ml in the neck region with a single dose at 3 hours post infection corresponding to 20 mg/kg on the basis of a mean animal weight of 20 g.
1 vial was further diluted with saline to 1, 0.8 and 0.4 mg/ml. The mice were treated subcutaneously with 0.25 ml (25 mg/kg dose) or 0.2 ml (for all other doses) in the neck region with a single dose at 4 hours post infection with a dose calculation based on a mean animal weight of 20 g.
as §2

[4] = in presence of 30 mg/kg amikacin
[5] = compound 1 alone, s.c., murine lungs
[6] = in presence of 20 mg/kg ciprofloxacin, murine lungs

“cyclo(TWI[Dab][Orn][dDab][Dab]W[Dab][Dab]AS[dP]P) [compound 1]” showed a Top level ([1]; compound 1 s.c. in presence of 30 mg/kg amikacin (s.c., 3 h post infection)) of −3.03 log10 CFU/ml, a Bottom level [1, 4] of −3.82 log10 CFU/ml and an Emax [1, 4] of 0.79 log10 CFU/ml. The ED50 ([1]; in presence of fixed dose of 30 mg/kg amikacin) was 9.1 mg/kg, the “mean CFU level compared to the vehicle group” value ([2]; 10 mg/kg treatment group) was “reduction of the mean CFU level” and the “mean CFU level compared to the vehicle group” value ([2]; 20 mg/kg treatment group) was “significant reduction”. For the same substance, the Top level ([2]; compound 1 alone, s.c. single dose 4 h post infection, murine lungs) was 1.59 log10 CFU/ml, the Bottom level [2, 5] was −0.80 log10 CFU/ml and the Emax [2, 5] was −2.4 log10 CFU/ml. The Static dose [2, 5] was 9.15 mg/kg, the ED50 ([2]; compound 1 alone, s.c., murine lungs, sigmoidal dose-response model (variable slope)) was 7.35 mg/kg and the “effect on bacterial loads” value ([3]; 5.5 mg/kg alone, lung, p<0.001) was “significant effect on reducing the bacterial loads”. For the same substance, the “CFU levels compared to vehicle treatment” value ([3]; combination of compound 1 at 1.88-25 mg/kg and ciprofloxacin 20 mg/kg, lung, p<0.001) was “significant reduction of the CFU levels”, the Top level ([3]; compound 1 s.c. in presence of 20 mg/kg ciprofloxacin (s.c., 3 h post infection), murine lungs) was −0.21 log10 CFU/ml and the “1 log killing dose” value [3, 6] was 0.45 mg/kg. The “2 log killing dose” value [3, 6] was 1.00 mg/kg, the 3log killing dose [3, 6] was 1.82 mg/kg and the Bottom level [3, 6] was −4.17 log10 CFU/ml. For the same substance, the Emax [3, 6] was 3.96 log10 CFU/ml and the ED50 ([3]; in presence of fixed dose of 20 mg/kg ciprofloxacin, murine lungs) was 1.55 mg/kg.
